Source: patent US20230106943A1, “ENGINEERED ANTIMICROBIAL PEPTIDES AND USAGE THEREOF” (Peptilogics, Inc., priority 2021, published 2023)
No end group written: not given here.

Assay: Stability of solid SEQ ID NO: 1 stored at −20° C. (HPLC area percent)
Assay type: physicochemical
Protocol: A solid form of SEQ ID NO: 1 from Batch 2K18005 was dissolved and assayed. FIG. 1 depict the chromatograph of SEQ ID NO:1 at 1.0 mg/mL. The retention time at 14.38 and relative retention time at 1.00 (RTT) corresponded to SEQ ID NO: 1. The area percent of the SEQ ID NO: 1 was 99.09. […] The area percent of the impurity was 0.91. FIG. 1 depicts SEQ ID NO: 1 at time (t)=0 for a baseline prior to storage. SEQ ID NO: 1 is stable after 3 years of storage at −20° C. as a dry powder in a glass vial. FIG. 2 depicts the HPLC chromatograph after 3 years of storage SEQ ID NO: 1 in solid form at −20° C. (Batch 2K18005). The retention time at 18.03 and relative retention time at 1.00 (RTT) corresponded to SEQ ID NO: 1. The area percent of the SEQ ID NO: 1 was 97.87.

[1] = solid form, Batch 2K18005, t=0 baseline prior to storage
[2] = solid form, after 3 years at −20° C.

RRWVRRVRRVWRRVVRVVRRWVRR-NH2 [SEQ ID NO: 1]
stability on storage (dry powder in a glass vial, 3 years at −20° C.): stable | area percent of the SEQ ID NO: 1 (HPLC) (solid form, Batch 2K18005, after 3 years of storage at −20° C.): 97.87 area percent | area percent of the SEQ ID NO: 1 (HPLC) [1]: 99.09 area percent | area percent of the impurity, RTT 1.03 [1]: 0.91 area percent | area percentage of impurity, RTT 0.99 [2]: 0.09 area percent | area percentage of impurity, RTT 1.02 [2]: 1.28 area percent | area percentage of impurity, RTT 1.03 [2]: 0.41 area percent | area percentage of impurity, RTT 1.04 [2]: 0.19 area percent | area percentage of impurity, RTT 1.05 [2]: 0.15 area percent
